Where two headings read alike, the source gives them in different places.
What was measured:
γ-secretase [1] = experiment: Aβ peptide ELISA in H4 cells stably expressing wild-type human APP751; assay type: cell-based
Description: Human neuroglioma H4 cells stably expressing wild-type human APP751 were used for this assay. Briefly, cells were plated at 15,000 cells/well in 96-well plates and left to settle for 6 h (37 °C; 5 % CO2). Cells were then washed three times with Pro293™ chemically defined medium (Lonza, Walkersville, MD, USA) followed by the addition of the compound (0.3 % final DMSO). Plates were incubated overnight, and the supernatant was removed for quantification of Aβ peptides by sandwich enzyme-linked immunosorbent assay (ELISA) (see below). Cytotoxicity was evaluated using Cell-Titer 96 W AQueous One Solution Cell Proliferation Assay (MTS Assay, Promega) according to the manufacturer’s protocol.
(§1) Aβ peptide levels were quantified by sandwich ELISA using anti-Aβ38, anti-Aβ40, anti-Aβ42, (BioLegend, Dedham, MA, USA) or anti-Aβ37 for the capture and 4G8-horseradish peroxidase (HRP; BioLegend) for detection. When measuring Aβ37 and Aβ38, 4G8-HRP was added to the sample for overnight incubation, whereas it was added after the overnight incubation for 1 h for Aβ40 and Aβ42 measurements.
(§2) For cell-based assays, freshly collected samples of cultured cell supernatant were added to the plates and incubated at 4 °C for about 24 h. Detection was performed using SureBlue 3,3’,5,5’-tetramethylbenzidine (TMB) peroxidase substrate (KPL, Inc., Gaithersburg, MD, USA) and the plates read on a SpectraMax M5e microplate reader (Molecular Devices, Inc., Sunnyvale, CA, USA). GSM-treated samples were normalized to samples treated with DMSO alone (100 %) and 5 μM GSI, DAPT (0 %; Sigma-Aldrich). EC50 values were calculated from values reported as percentage of DMSO using nonlinear regression, based on a sigmoidal dose–response (variable slope) model.

γ-secretase [2] = target: T1, γ-secretase (Homo sapiens, UniProt P49768); experiment: Aβ in media and intracellular small peptides of HEK cells expressing APPsw and WT presenilin; assay type: cell-based; conditions: HEK APPsw, 1 μM
T1 construct: expressed in transfected cells; host or cells: HEK cells stably expressing APPsw and WT PS1
Description: as §1, §2
The extractions were performed according to the methods described by Okochi et al.. Briefly, human embryonic kidney (HEK) cells stably expressing APPsw and PS1 derivatives were cultured to confluence in 10-cm dishes and the media replaced on the day of the experiment. […] Conditioned media were collected and cells were washed with ice-cold PBS and then immediately boiled for 2 min. A monitoring peptide (IVTL) and protease inhibitors were then added to the boiled samples, which were sonicated for 5 s three times and centrifuged at 100,000 × g for 1 h. The resultant supernatants were precipitated with TCA on ice for 15 min, centrifuged at 100,000 × g for 1 h, and filtered before being subjected to LC-MS/MS analysis to measure the tri-, tetra-, and pentapeptides as described elsewhere.

γ-secretase [3] = experiment: Acute oral treatment of rats, brain and CSF Aβ peptides; assay type: in vivo, rat
Description: For in vivo assessment of compound efficacy, brain tissue and cerebrospinal fluid (CSF) were collected, snap frozen in liquid nitrogen, and stored at −80 °C. Brain hemispheres were homogenized in 0.6 % diethylamine (DEA) in 50 mM NaCl containing protease inhibitor cocktail (cOmplete mini, EDTA-free, Roche) using sonication (Branson) at 23 % amplitude for 30 s. Homogenates were spun at 227,000 × g for 25 min at 4 °C. Supernatants were diluted fivefold in PBS-T (0.05 % Tween-20) containing 0.67 % BSA and added to the ELISA plate. For CSF, samples were diluted threefold in the PBS-T/BSA buffer. Detection was performed using the SuperSignal™ ELISA Femto substrate (Thermo Fisher), and luminescence was read on an EnVision plate reader (Perkin Elmer).
Mice and rats were maintained on 12/12 h light/dark cycle with food available ad libitum. Drug treatment was prepared in a vehicle of 1 % carboxymethylcellulose (CMC):Tween80 (99.5:0.5). Twelve-week-old wild-type male mice (129S6, Taconic Biosciences, Hudson, NY, USA) or rats (Wistar, Charles River Laboratories) were administered compound p.o. without prior fasting and euthanized by CO2 asphyxiation at specified times post-dosing. After extraction of the brain, the olfactory bulb and hindbrain were removed and the cerebral hemispheres separated (mice) or cut in 4 pieces (rats). The cerebellum was removed for bioanalysis of the compound. CSF was collected from the cisterna magna and blood from a cardiac puncture.

[4] = system: γ-secretase with FAD PS1 mutations (H163R, M233L, R278I); experiment: HEK cells overexpressing APPsw with FAD PS1 mutations; assay type: cell-based, human
Description: as §1, §2
The extractions were performed according to the methods described by Okochi et al.. Briefly, human embryonic kidney (HEK) cells stably expressing APPsw and PS1 derivatives were cultured to confluence in 10-cm dishes and the media replaced on the day of the experiment. Cells were treated with FRM-36143 in the presence of proteasome inhibitors (1 […], 100 nM MG262, and […]) for 1 h. Conditioned media were collected and cells were washed with ice-cold PBS and then immediately boiled for 2 min. A monitoring peptide (IVTL) and protease inhibitors were then added to the boiled samples, which were sonicated for 5 s three times and centrifuged at 100,000 × g for 1 h. The resultant supernatants were precipitated with TCA on ice for 15 min, centrifuged at 100,000 × g for 1 h, and filtered before being subjected to LC-MS/MS analysis to measure the tri-, tetra-, and pentapeptides as described elsewhere.

[5] = rats, 30 mg/kg p.o., 6 h post-dose

EC50 (γ-secretase [1]; H4 APP751 cells, overnight, ELISA, read-out: EC50 for Aβ37): 186 nM
EC50 (γ-secretase [1]; H4 APP751 cells, overnight, ELISA, read-out: EC50 for Aβ38): 38 nM
EC50 (γ-secretase [1]; H4 APP751 cells, overnight, ELISA, read-out: EC50 for Aβ40): 167 nM
EC50 (γ-secretase [1]; H4 cells expressing human WT APP751, overnight treatment, ELISA of conditioned media, read-out: EC50 for Aβ42): 35 nM
EC90 (γ-secretase [1]; assay not stated, compared with unbound brain concentration): 383 nM
EC50 (γ-secretase [1]; range over H4 cells and primary neurons, read-out: EC50 to reduce Aβ42 levels in cells): 35 to 53 nM
Aβ42 concentration in the media (γ-secretase [2]; 2 h, DMSO 154 ± 2): 105 ± 2 pM
Aβ38 concentration in the media (γ-secretase [2]; 2 h, DMSO 750 ± 62): 1548 ± 39 pM
Aβ40 concentration in the media (γ-secretase [2]; 2 h, DMSO 4021 ± 132): 3477 ± 120 pM
Aβtotal concentration in the media (Aβ38 + Aβ40 + Aβ42) (γ-secretase [2]; 2 h, DMSO 4925 ± 185): 5130 ± 92 pM
SMILES: COc1nc(C2=NOC[C@H](c3cc4ccccc4o3)N2)ccc1-n1cnc(C)c1 [FRM-36143, (R)-5-(benzofuran-2-yl)-3-(6-methoxy-5-(4-methyl-1H-imidazol-1-yl)pyridin-2-yl)-5,6-dihydro-4H-1,2,4-oxadiazine]
Intracellular production of small peptides VVIA and VVIAT (fourth cleavage step) (γ-secretase [2]; LC-MS/MS): increases the production of VVIA and VVIAT
Aβ42 reduced to % of the baseline in rat cerebrospinal fluid (γ-secretase [3]; rat CSF): 58%
Brain Aβ37 increase vs vehicle (γ-secretase [3]; [5]): 2.5 fold
Brain Aβ42 reduction vs vehicle (γ-secretase [3]; [5]): 30%
CSF Aβ42 reduction vs vehicle (γ-secretase [3]; [5]): 58%
CSF Aβ37 increase vs vehicle (γ-secretase [3]; rats, 30 mg/kg p.o., 6 h post-dose, vehicle values close to detection limit): 20 fold
Reversal of the effect of FAD PS1 mutations on APP processing ([4]; HEK APPsw with PS1 H163R, M233L or R278I, Aβ42:Aβ40, Aβ38:Aβ42, VVIA/VVIAT): able to reverse the effect of the mutations studied
Aβ38:Aβ42 ratio (fourth cleavage step) ([4]; PS1 R278I mutant): significant increase
Aβ42:Aβ40 ratio ([4]; PS1 R278I mutant): remains unchanged
